Several values for one entry are separate records, joined by “and”; a condition that tells them apart may be missing. Equal values may be shown once. Entries after “also recorded” stand apart in the source; their conditions may differ.
Legend:
Mino = assay: IC50 in MCL cell lines (Supplementary Table 2), Mino; details: for Cell Viability (%): Mino cells, replicate wells
MOLM-14 cells = assay: Quantitative multiplexed (TMT) proteomics of compound-treated cells; format: cell-based, Homo sapiens; details: 200 nM, 24 h
Procedure: For proteomic study of the cellular protein profile following BTK degradation, MOLM-14 cells were treated in duplicate with 200 nM of RC-1, RNC-1, IRC-1, or RC-1-Me for 24 h, and then the cells were collected and processed for proteomics analysis (Sanford Burnham Prebys Medical Discovery Institute, La Jolla, California).
For cell lysis and protein digestion, cells were lysed with vigorous shaking (20 Hz for 10 min at room temperature by Retsch MM301 instrument) in 0.5 mL of lysis buffer (8 M urea, 50 mM ammonium bicarbonate (ABC); plus Benzonase 24U/100 ml), and extracted proteins were centrifuged at 14,000 × g for 10 min to remove cellular debris. Supernatant protein concentration was determined using a bicinchoninic acid (BCA) protein assay. Following quantification, the proteins were digested in solution. First, protein disulfide bonds were reduced with 5 mM tris(2-carboxyethyl)phosphine (TCEP) at 30 °C for 60 min, alkylated (carbamidomethylated) with 15 mM iodoacetamide (IAA) in the dark at room temperature for 30 min. Urea was then diluted to 1 M urea using 50 mM ammonium bicarbonate, and proteins were subjected to overnight digestion with mass spec grade Trypsin/Lys-C mix. Following digestion, samples were acidified with formic acid (FA) and subsequently desalted using Waters Sep-Pak C18. Cartridges were sequentially conditioned with 100% acetonitrile (ACN) and 0.1% FA, samples were then loaded, washed with 0.1% FA, and peptides eluted with 60% ACN, 0.1% FA. Finally, the organic solvent was removed in a SpeedVac concentrator prior to LC-MS/MS analysis.
Prior to TMT labeling, sample peptide amount was quantified using a NanoDrop^TM spectrophotometer (ThermoFisher). Samples were labeled according to the table schematic shown below using our TMT protocol. Briefly, a normalized amount of peptides sample was resuspended in 200 mM HEPES pH 8, and then labeled with one of the TMT10-plex reagents for 1 h at room temperature. TMT labels/channels were as follows:
Reactions were quenched with 5% hydroxylamine solution. The 10 samples were then combined, dried down in a SpeedVac system, resuspended in 0.1% FA, and desalted as described above. After desalting, the organic solvent was removed in a SpeedVac concentrator.
Dried samples were reconstituted in 20 mM ammonium formate pH ~10, and fractionated by high pH reverse phase using a Waters Acquity CSH C18 2.1-µm 1 × 150 mm column mounted on an M-Class Ultra Performance Liquid Chromatography (UPLC) system (Waters corp., Milford, MA). […] A total of 36 fractions were collected and pooled in a non-contiguous manner into 18 total fractions: 1 + 19, 2 + 20, 3 + 21, 4 + 22, 5 + 23, 6 + 24, 7 + 25, 8 + 26, 9 + 27, 10 + 28, 11 + 29, 12 + 30, 13 + 31, 14 + 32, 15 + 33, 16 + 34, 17 + 35, and 18 + 36. Pooled fractions were dried to completeness in a SpeedVac concentrator.
Dried fractions were reconstituted with 2% ACN-0.1% FA and analyzed by LC-MS/MS using a nanoACQUITY system (Waters) coupled to an Orbitrap Fusion Lumos mass spectrometer (Thermo Fisher Scientific). […] The mass spectrometer was operated in positive data-dependent acquisition mode. MS1 spectra were measured in the Orbitrap with a resolution of 60,000 (AGC target: 4e5; maximum injection time: 50 ms; mass range: from 350 to 1500 m/z). The instrument was set to run in top speed mode with 3 s cycles for the survey and the MS/MS scans. After a survey scan, tandem MS was performed in the Ion Routing Multipole HCD-Cell on the most abundant precursors by isolating them in the quadrupole (Isolation window: 0.7 m/z; charge state: +2–7; collision energy: 35%). […] The dynamic exclusion was set to 20 s with a 10-ppm mass tolerance around the precursor and its isotopes.
For data analysis, all mass spectra were analyzed with MaxQuant software version 1.5.5.1. MS/MS spectra were searched against the Homo sapiens Uniprot protein sequence database (version January 2018) and GPM cRAP sequences (commonly known protein contaminants). […]

full-length BTK protein = molecular target: T1, full-length BTK protein (Homo sapiens, UniProt Q06187); assay: BTK binding assay (Kd, Eurofins DiscoverX)
T1 construct: Kd was measured using the full-length BTK protein by Eurofins DiscoverX; T7 phage fusion or DNA tag for qPCR (generic vendor protocol); purchased Eurofins DiscoverX
Procedure: The dissociation equilibrium constant Kd was measured using the full-length BTK protein by Eurofins DiscoverX according to the following protocol: kinase-tagged T7 phage strains were prepared in an E. coli host derived from the BL21 strain. E. coli were grown to log-phase and infected with T7 phage and incubated with shaking at 32 °C until lysis. The lysates were centrifuged and filtered to remove cell debris. The remaining kinases were produced in HEK-293 cells and subsequently tagged with DNA for qPCR detection. […] The liganded beads were blocked with excess biotin and washed with blocking buffer (SeaBlock (Pierce), 1% BSA, 0.05% Tween 20, 1 mM DTT) to remove unbound ligand and to reduce non-specific binding. […] Test compounds were prepared as 111X stocks in 100% DMSO. […] The compounds were then diluted directly into the assays such that the final concentration of DMSO was 0.9%. All reactions performed in polypropylene 384-well plate. Each was a final volume of 0.02 mL. […] The kinase concentration in the eluates was measured by qPCR. For kinase-binding constant determination, an 11-point 3-fold serial dilution of each test compound was prepared in 100% DMSO at 100x final test concentration and subsequently diluted to 1x in the assay (final DMSO concentration = 1%). […] Binding constants (Kd values) were calculated with a standard dose-response curve using the Hill equation: Response=Background+Signal−Background/1+KdHillSlope/Dose^HillSlope
The Hill Slope was set to −1. Curves were fitted using a non-linear least square fit with the Levenberg-Marquardt algorithm.

T1 sequence (Q06187 whole entry, the tested form may be a part): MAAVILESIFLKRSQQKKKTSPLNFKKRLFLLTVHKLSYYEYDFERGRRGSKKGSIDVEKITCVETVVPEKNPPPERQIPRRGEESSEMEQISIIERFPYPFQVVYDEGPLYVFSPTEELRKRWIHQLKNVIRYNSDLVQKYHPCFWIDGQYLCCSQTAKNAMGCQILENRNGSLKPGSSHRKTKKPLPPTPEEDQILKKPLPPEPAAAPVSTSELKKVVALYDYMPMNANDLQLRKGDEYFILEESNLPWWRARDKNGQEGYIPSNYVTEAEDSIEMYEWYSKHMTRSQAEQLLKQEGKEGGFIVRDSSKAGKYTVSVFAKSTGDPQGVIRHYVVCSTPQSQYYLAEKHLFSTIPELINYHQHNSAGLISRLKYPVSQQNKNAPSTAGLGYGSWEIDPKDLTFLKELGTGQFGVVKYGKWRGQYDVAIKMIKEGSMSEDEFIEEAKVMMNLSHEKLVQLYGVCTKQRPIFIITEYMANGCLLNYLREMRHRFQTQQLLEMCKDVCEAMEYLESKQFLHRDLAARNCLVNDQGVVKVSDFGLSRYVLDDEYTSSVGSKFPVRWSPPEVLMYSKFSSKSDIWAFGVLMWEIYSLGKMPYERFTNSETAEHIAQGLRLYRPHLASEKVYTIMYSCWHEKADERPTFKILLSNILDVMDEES

## CN(CCCNC(=O)CNc1cccc2c1C(=O)N(C1CCC(=O)NC1=O)C2=O)C(C)(C)C=C(C#N)C(=O)N1CCC[C@@H](n2nc(-c3ccc(Oc4ccccc4)cc3)c3c(N)ncnc32)C1 (some centres unmarked) [RC-1]
Mino; 1.25E-06 M
  Cell Viability (%): 39.6721% and 39.1711% and 38.89%
Mino; 1.56E-07 M
  Cell Viability (%): 67.6678% and 68.2351% and 62.6329%
Mino; 2.50E-06 M
  Cell Viability (%): 36.14% and 35.6851% and 33.7887%
Mino; 3.13E-07 M
  Cell Viability (%): 53.7594% and 53.6077% and 49.7111%
Mino; 5.00E-06 M
  Cell Viability (%): 32.4512% and 31.601% and 30.272%
Mino; 6.25E-07 M
  Cell Viability (%): 49.0909% and 46.392% and 45.7071%
Mino; 7.81E-08 M
  Cell Viability (%): 89.7818% and 79.7053% and 78.5229%
Mino; Mino, triplicates
  IC50: 400 nM
MOLM-14 cells
  degradation of IMiD-dependent substrates IKZF1, ZFP91, ZNF692: specifically degraded
  kinases degraded (proteomics): only two kinases (BTK and CSK) can be degraded; also recorded: only degrades BTK and CSK
full-length BTK protein; BTK_+DTT, compound concentration 0.00491 nM
  Signal: 2.20E-05 and 2.17E-05
full-length BTK protein; BTK_+DTT, compound concentration 0.0147 nM
  Signal: 1.92E-05 and 1.81E-05
full-length BTK protein; BTK_+DTT, compound concentration 0.0442 nM
  Signal: 2.14E-05 and 1.73E-05
full-length BTK protein; BTK_+DTT, compound concentration 0.133 nM
  Signal: 2.05E-05 and 2.18E-05
full-length BTK protein; BTK_+DTT, compound concentration 0.398 nM
  Signal: 2.41E-05 and 2.16E-05
full-length BTK protein; BTK_+DTT, compound concentration 1.19 nM
  Signal: 1.65E-05 and 1.58E-05
full-length BTK protein; BTK_+DTT, compound concentration 3.58 nM
  Signal: 1.59E-05 and 1.74E-05
full-length BTK protein; BTK_+DTT, compound concentration 10.7 nM
  Signal: 1.27E-05 and 1.43E-05
full-length BTK protein; BTK_+DTT, compound concentration 32.2 nM
  Signal: 8.15E-06 and 9.04E-06
full-length BTK protein; BTK_+DTT, compound concentration 96.7 nM
  Signal: 2.36E-06 and 3.19E-06
full-length BTK protein; BTK_+DTT, compound concentration 290 nM
  Signal: 6.97E-07 and 7.79E-07
full-length BTK protein; BTK_-DTT, compound concentration 0.0152 nM
  Signal: 1.51E-05 and 1.47E-05
full-length BTK protein; BTK_-DTT, compound concentration 0.0457 nM
  Signal: 1.49E-05 and 1.51E-05
full-length BTK protein; BTK_-DTT, compound concentration 0.137 nM
  Signal: 1.65E-05 and 2.03E-05
full-length BTK protein; BTK_-DTT, compound concentration 0.412 nM
  Signal: 1.54E-05 and 1.43E-05
full-length BTK protein; BTK_-DTT, compound concentration 1.23 nM
  Signal: 1.12E-05 and 1.17E-05
full-length BTK protein; BTK_-DTT, compound concentration 3.7 nM
  Signal: 1.02E-05 and 1.17E-05
full-length BTK protein; BTK_-DTT, compound concentration 11.1 nM
  Signal: 6.96E-06 and 6.70E-06
full-length BTK protein; BTK_-DTT, compound concentration 33.3 nM
  Signal: 2.36E-06 and 3.11E-06
full-length BTK protein; BTK_-DTT, compound concentration 100 nM
  Signal: 5.28E-07 and 7.20E-07
full-length BTK protein; BTK_-DTT, compound concentration 300 nM
  Signal: 2.64E-07 and 1.61E-07
full-length BTK protein; full-length BTK, absence of DTT in the buffer, duplicates
  Kd: 6.4 nM
